Patent US6534494B1, “Process for the preparation of cefuroxime axetil in an amorphous form” (Ranbaxy Laboratories Limited, priority 1998, dated 2003)

Tests used:
[1] = Particle size by scanning electron microscopy; assay type: physicochemical; conditions: crystalline feed material before milling
Method: 30 g of crystalline cefuroxime axetil S isomer with a particle size of 10-300 μm and having a bulk density of 0.391 g/cc, together with 3 g of sodium lauryl sulphate (SLS) were placed in the bowl of a Micros ‘0’ Super Fine Mill. Cold water was circulated through the outer jacket. The mill was operated with main shaft rotation set at 1000 rpm for 120 mins. The inner temperature was maintained in the range from 19-24° C. […] Samples of the material were examined by scanning electron microscopy and by X-ray diffraction crystallography.
Crystalline cefuroxime axetil S isomer with a particle size of 10-300 μm and having a bulk density of 0.391 g/cc, a mixture of crystalline cefuroxime axetil S isomer with crystalline cefuroxime axetil R isomer with a particle size of 5-50 μm, and having a bulk density of 0.221 g/cc. and crystalline cefuroxime axetil R,S racemic mixture were tested for conversion from the crystalline form to an amorphous form in different trials. The feed material consisted of cefuroxime axetil together with sodium lauryl sulphate or cefuroxime axetil together with sodium lauryl sulphate and colloidal silica (Aerosil 200). Samples of the material were withdrawn at various times for X-ray diffraction crystallography using a XRG 3000 diffractometer, and for scanning electron photomicrography. […] The percent crystallinity for the samples from Examples 6-9 was estimated to be less than 5% in all cases confirming the conversion of cefuroxime axetil to a predominantly (at least 95%) amorphous form.

[2] = Bulk density of crystalline feed material; assay type: physicochemical; conditions: crystalline feed material before milling
[3] = compared with the crystalline form; cited from earlier work
[4] = amorphous form, purity at least 95%; cited from earlier work
[5] = listed as Crystalline cefuroxime axetil S isomer

SMILES | particle size [1] | particle size [1, 5] | bulk density [2] [g/cc] | bulk density [2, 5] [g/cc] | bioavailability [3] | chemical stability [4]
CO/N=C(\C(=O)N[C@@H]1C(=O)N2C(C(=O)OC(C)OC(C)=O)=C(COC(N)=O)CS[C@H]12)c1ccco1 (stereo partly drawn) [crystalline cefuroxime axetil S isomer, cefuroxime axetil] | 10-300 μm | 10-300 μm | 0.391 | 0.391 |  | 
CO/N=C(\C(=O)N[C@@H]1C(=O)N2C(C(=O)OC(C)OC(C)=O)=C(COC(N)=O)CS[C@H]12)c1ccco1 (some centres unmarked) [cefuroxime axetil in amorphous form, cefuroxime axetil] |  |  |  |  | higher bioavailability than the crystalline form | adequate chemical stability
CO/N=C(\C(=O)N[C@@H]1C(=O)N2C(C(=O)OC(C)OC(C)=O)=C(COC(N)=O)CS[C@H]12)c1ccco1 (stereo partly drawn) [crystalline cefuroxime axetil R isomer, cefuroxime axetil] | 5-50 μm |  | 0.221 |  |  | 
